Results as given in ChEMBL document CHEMBL1130110 (J Med Chem, 1997).

Columns and labels:
[1] = target: Glucagon receptor (Rattus norvegicus) (UniProt P30082); test: Percent stimulation of cAMP production over basal.; format: functional; design: concentration or dose not given beside the values
[2] = target: Glucagon receptor (Rattus norvegicus) (UniProt P30082); test: Relative binding potency expressed as receptor binding IC50 for glucagon by receptor binding IC50 for compound

Sequence of Glucagon receptor (Rattus norvegicus) (P30082 whole entry): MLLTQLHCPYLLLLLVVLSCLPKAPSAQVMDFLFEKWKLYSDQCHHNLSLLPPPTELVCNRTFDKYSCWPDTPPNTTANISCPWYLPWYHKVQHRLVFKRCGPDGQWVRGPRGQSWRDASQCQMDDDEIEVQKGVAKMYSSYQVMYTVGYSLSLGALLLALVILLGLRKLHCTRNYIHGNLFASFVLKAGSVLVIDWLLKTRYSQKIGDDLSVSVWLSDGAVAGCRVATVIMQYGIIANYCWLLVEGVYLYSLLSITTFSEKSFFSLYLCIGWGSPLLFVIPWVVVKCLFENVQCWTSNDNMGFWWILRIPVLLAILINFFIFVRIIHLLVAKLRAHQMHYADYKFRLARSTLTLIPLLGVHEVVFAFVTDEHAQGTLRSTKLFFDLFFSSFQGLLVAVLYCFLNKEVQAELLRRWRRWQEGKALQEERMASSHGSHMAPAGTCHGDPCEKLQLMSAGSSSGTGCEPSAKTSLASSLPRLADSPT

| Compound | Activity [1] [%] | Activity [2] [%] |
| --- | --- | --- |
| CSCC[C@@H](NC(=O)[C@@H](CC(C)C)NC(=O)[C@@H](Cc1c[nH]c2ccccc12)NC(=O)[C@@H](CCC(N)=O)NC(=O)[C@H](NC(=O)[C@@H](Cc1ccccc1)NC(=O)[C@@H](CC(=O)O)NC(=O)[C@@H](CCC(N)=O)NC(=O)[C@@H](C)NC(=O)[C@@H](CCCN=C(N)N)NC(=O)[C@@H](CCCN=C(N)N)NC(=O)[C@@H](CO)NC(=O)[C@@H](CC(=O)O)NC(=O)[C@@H](CC(C)C)NC(=O)[C@@H](Cc1ccc(O)cc1)NC(=O)[C@@H](CCCCN)NC(=O)[C@@H](CO)NC(=O)[C@@H](Cc1ccc(O)cc1)NC(=O)[C@@H](CC(=O)O)NC(=O)[C@@H](CO)NC(=O)[C@H](NC(=O)[C@H](NC(=O)CNC(=O)[C@@H](CCC(N)=O)NC(=O)[C@H](N)CO)[C@H](C)O)[C@H](C)O)C(C)C)C(=O)N[C@H](CC(N)=O)C(=O)N[C@@H](C(N)=O)[C@H](C)O | 0 | 1.2 |
| CSCC[C@@H](NC(=O)[C@@H](CC(C)C)NC(=O)[C@@H](Cc1c[nH]c2ccccc12)NC(=O)[C@@H](CCC(N)=O)NC(=O)[C@H](NC(=O)[C@@H](Cc1ccccc1)NC(=O)[C@@H](CC(=O)O)NC(=O)[C@@H](CCC(N)=O)NC(=O)[C@@H](C)NC(=O)[C@@H](CCCN=C(N)N)NC(=O)[C@@H](CCCN=C(N)N)NC(=O)[C@@H](CO)NC(=O)[C@@H](CC(=O)O)NC(=O)[C@@H](CC(C)C)NC(=O)[C@@H](Cc1ccc(O)cc1)NC(=O)[C@@H](CCCCN)NC(=O)[C@@H](CO)NC(=O)[C@@H](Cc1ccc(O)cc1)NC(=O)[C@@H](CC(=O)O)NC(=O)[C@@H](CO)NC(=O)[C@H](NC(=O)[C@H](NC(=O)CNC(=O)[C@@H](CCC(N)=O)NC(=O)[C@@H](CO)NC(=O)[C@H](N)Cc1c[nH]cn1)[C@H](C)O)[C@H](C)O)C(C)C)C(=O)N[C@H](CC(N)=O)C(=O)N[C@@H](C(N)=O)[C@H](C)O | 0 | 0.3 |
| CSCC[C@@H](NC(=O)[C@@H](CC(C)C)NC(=O)[C@@H](Cc1c[nH]c2ccccc12)NC(=O)[C@@H](CCC(N)=O)NC(=O)[C@H](NC(=O)[C@@H](Cc1ccccc1)NC(=O)[C@@H](CC(=O)O)NC(=O)[C@@H](CCC(N)=O)NC(=O)[C@@H](C)NC(=O)[C@@H](CCCN=C(N)N)NC(=O)[C@@H](CCCN=C(N)N)NC(=O)[C@@H](CO)NC(=O)[C@@H](CC(=O)O)NC(=O)[C@@H](CC(C)C)NC(=O)[C@@H](Cc1ccc(O)cc1)NC(=O)[C@@H](CCCCN)NC(=O)[C@@H](CO)NC(=O)[C@@H](Cc1ccc(O)cc1)NC(=O)[C@@H](CCC(=O)O)NC(=O)[C@@H](CO)NC(=O)[C@H](NC(=O)[C@H](NC(=O)CNC(=O)[C@@H](CCC(N)=O)NC(=O)[C@@H](CO)NC(=O)[C@H](N)Cc1c[nH]cn1)[C@H](C)O)[C@H](C)O)C(C)C)C(=O)N[C@H](CC(N)=O)C(=O)N[C@@H](C(N)=O)[C@H](C)O | 0 | 1.3 |
| CSCC[C@@H](NC(=O)[C@@H](CC(C)C)NC(=O)[C@@H](Cc1c[nH]c2ccccc12)NC(=O)[C@@H](CCC(N)=O)NC(=O)[C@H](NC(=O)[C@@H](Cc1ccccc1)NC(=O)[C@@H](CC(=O)O)NC(=O)[C@@H](CCC(N)=O)NC(=O)[C@@H](C)NC(=O)[C@@H](CCCN=C(N)N)NC(=O)[C@@H](CCCN=C(N)N)NC(=O)[C@@H](CO)NC(=O)[C@@H](CC(=O)O)NC(=O)[C@@H](CC(C)C)NC(=O)[C@@H](Cc1ccc(O)cc1)NC(=O)[C@@H](CCCCN)NC(=O)[C@@H](CO)NC(=O)[C@@H](Cc1ccc(O)cc1)NC(=O)[C@@H](CCC(=O)O)NC(=O)[C@@H](CO)NC(=O)[C@H](NC(=O)[C@@H](C)NC(=O)[C@H](NC(=O)CNC(=O)[C@@H](CCC(N)=O)NC(=O)[C@H](N)CO)[C@H](C)O)[C@H](C)O)C(C)C)C(=O)N[C@H](CC(N)=O)C(=O)N[C@@H](C(N)=O)[C@H](C)O | 0 | 1.2 |
| CSCC[C@@H](NC(=O)[C@@H](CC(C)C)NC(=O)[C@@H](Cc1c[nH]c2ccccc12)NC(=O)[C@@H](CCC(N)=O)NC(=O)[C@H](NC(=O)[C@@H](Cc1ccccc1)NC(=O)[C@@H](CC(=O)O)NC(=O)[C@@H](CCC(N)=O)NC(=O)[C@@H](C)NC(=O)[C@@H](CCCN=C(N)N)NC(=O)[C@@H](CCCN=C(N)N)NC(=O)[C@@H](CO)NC(=O)[C@@H](CC(=O)O)NC(=O)[C@@H](CC(C)C)NC(=O)[C@@H](Cc1ccc(O)cc1)NC(=O)[C@@H](CCCCN)NC(=O)[C@@H](CO)NC(=O)[C@@H](Cc1ccc(O)cc1)NC(=O)[C@@H](CC(=O)O)NC(=O)[C@@H](CO)NC(=O)[C@H](NC(=O)[C@H](NC(=O)CNC(=O)[C@@H](CCC(N)=O)NC(=O)[C@H](N)CO)[C@H](C)O)[C@H](C)O)C(C)C)C(=O)N[C@H](CC(N)=O)C(=O)N[C@@H](C(=O)O)[C@H](C)O | 0 | 1 |
| CC(C)C[C@@H](NC(=O)[C@@H](Cc1ccc(O)cc1)NC(=O)[C@@H](CCCCN)NC(=O)[C@@H](CO)NC(=O)[C@@H](Cc1ccc(O)cc1)NC(=O)[C@@H](CC(=O)O)NC(=O)[C@@H](CO)NC(=O)[C@H](NC(=O)[C@H](NC(=O)CNC(=O)[C@@H](CCC(N)=O)NC(=O)[C@@H](CO)NC(=O)[C@H](N)Cc1c[nH]cn1)[C@H](C)O)[C@H](C)O)C(=O)N[C@H](CC(=O)O)C(=O)N[C@H](CO)C(=O)N[C@H](CCCN=C(N)N)C(=O)N[C@H](CCCN=C(N)N)C(=O)N[C@H](C)C(=O)N[C@H](CCC(N)=O)C(=O)N[C@H](CC(=O)O)C(=O)N[C@H](Cc1ccccc1)C(=O)N[C@@H](C(=O)N[C@H](CCC(N)=O)C(=O)N[C@H](Cc1c[nH]c2ccccc12)C(=O)N[C@H](CC(C)C)C(=O)N[C@H](CCS)C(=O)N[C@H](CC(N)=O)C(=O)N[C@@H](C=O)[C@H](C)O)C(C)C | 0 | 0.3 |
| CCCC[C@H](NC(=O)[C@H](NC(=O)CNC(=O)[C@@H](CCC(N)=O)NC(=O)[C@H](N)CO)[C@H](C)O)C(=O)N[C@@H](C(=O)N[C@H](CO)C(=O)N[C@H](CCC(=O)O)C(=O)N[C@H](Cc1ccc(O)cc1)C(=O)N[C@H](CO)C(=O)N[C@H](CCCCN)C(=O)N[C@H](Cc1ccc(O)cc1)C(=O)N[C@H](CC(C)C)C(=O)N[C@H](CC(=O)O)C(=O)N[C@H](CO)C(=O)N[C@H](CCCN=C(N)N)C(=O)N[C@H](CCCN=C(N)N)C(=O)N[C@H](C)C(=O)N[C@H](CCC(N)=O)C(=O)N[C@H](CC(=O)O)C(=O)N[C@H](Cc1ccccc1)C(=O)N[C@@H](C(=O)N[C@H](CCC(N)=O)C(=O)N[C@H](Cc1c[nH]c2ccccc12)C(=O)N[C@H](CC(C)C)C(=O)N[C@H](CCSC)C(=O)N[C@H](CC(N)=O)C(=O)N[C@@H](C(N)=O)[C@H](C)O)C(C)C)[C@H](C)O | 12 | 3.1 |
| CSCC[C@@H](NC(=O)[C@@H](CC(C)C)NC(=O)[C@@H](Cc1c[nH]c2ccccc12)NC(=O)[C@@H](CCC(N)=O)NC(=O)[C@H](NC(=O)[C@@H](Cc1ccccc1)NC(=O)[C@@H](CC(=O)O)NC(=O)[C@@H](CCC(N)=O)NC(=O)[C@@H](C)NC(=O)[C@@H](CCCN=C(N)N)NC(=O)[C@@H](CCCN=C(N)N)NC(=O)[C@@H](CO)NC(=O)[C@@H](CC(=O)O)NC(=O)[C@@H](CC(C)C)NC(=O)[C@@H](Cc1ccc(O)cc1)NC(=O)[C@@H](CCCCN)NC(=O)[C@@H](CO)NC(=O)[C@@H](Cc1ccc(O)cc1)NC(=O)[C@@H](CCC(=O)O)NC(=O)[C@@H](CO)NC(=O)[C@H](NC(=O)[C@@H](Cc1ccccc1)NC(=O)[C@H](NC(=O)[C@@H](CCC(N)=O)NC(=O)[C@H](N)CO)[C@H](C)O)[C@H](C)O)C(C)C)C(=O)N[C@H](CC(N)=O)C(=O)N[C@@H](C(N)=O)[C@H](C)O | 6 | 3 |
| CSCC[C@@H](NC(=O)[C@@H](CC(C)C)NC(=O)[C@@H](Cc1c[nH]c2ccccc12)NC(=O)[C@@H](CCC(N)=O)NC(=O)[C@H](NC(=O)[C@@H](Cc1ccccc1)NC(=O)[C@@H](CC(=O)O)NC(=O)[C@@H](CCC(N)=O)NC(=O)[C@@H](C)NC(=O)[C@@H](CCCN=C(N)N)NC(=O)[C@@H](CCCN=C(N)N)NC(=O)[C@@H](CO)NC(=O)[C@@H](CC(=O)O)NC(=O)[C@@H](CC(C)C)NC(=O)[C@@H](Cc1ccc(O)cc1)NC(=O)[C@@H](CCCCN)NC(=O)[C@@H](CO)NC(=O)[C@@H](Cc1ccc(O)cc1)NC(=O)[C@@H](CCC(=O)O)NC(=O)[C@@H](CO)NC(=O)[C@H](NC(=O)[C@H](NC(=O)CNC(=O)[C@@H](CCC(N)=O)NC(=O)[C@H](N)CO)[C@H](C)O)[C@H](C)O)C(C)C)C(=O)N[C@H](CC(N)=O)C(=O)N[C@@H](C(=O)O)[C@H](C)O (stereo in doubt; 12) | 0 | < 0.1 |
| CSCC[C@@H](NC(=O)[C@@H](CC(C)C)NC(=O)[C@@H](Cc1c[nH]c2ccccc12)NC(=O)[C@@H](CCC(N)=O)NC(=O)[C@H](NC(=O)[C@@H](Cc1ccccc1)NC(=O)[C@@H](CC(=O)O)NC(=O)[C@@H](CCC(N)=O)NC(=O)[C@@H](C)NC(=O)[C@@H](CCCN=C(N)N)NC(=O)[C@@H](CCCN=C(N)N)NC(=O)[C@@H](CO)NC(=O)[C@@H](CC(=O)O)NC(=O)[C@@H](CC(C)C)NC(=O)[C@@H](Cc1ccc(O)cc1)NC(=O)[C@@H](CCCCN)NC(=O)[C@@H](CO)NC(=O)[C@@H](Cc1ccc(O)cc1)NC(=O)[C@@H](CCC(=O)O)NC(=O)[C@@H](CO)NC(=O)[C@H](NC(=O)[C@@H](CC(=O)O)NC(=O)[C@H](NC(=O)CNC(=O)[C@@H](CCC(N)=O)NC(=O)[C@H](N)CO)[C@H](C)O)[C@H](C)O)C(C)C)C(=O)N[C@H](CC(N)=O)C(=O)N[C@@H](C(N)=O)[C@H](C)O | 0 | < 0.1 |
| CSCC[C@@H](NC(=O)[C@@H](CC(C)C)NC(=O)[C@@H](Cc1c[nH]c2ccccc12)NC(=O)[C@@H](CCC(N)=O)NC(=O)[C@H](NC(=O)[C@@H](Cc1ccccc1)NC(=O)[C@@H](CC(=O)O)NC(=O)[C@@H](CCC(N)=O)NC(=O)[C@@H](C)NC(=O)[C@@H](CCCN=C(N)N)NC(=O)[C@@H](CCCN=C(N)N)NC(=O)[C@@H](CO)NC(=O)[C@@H](CC(=O)O)NC(=O)[C@@H](CC(C)C)NC(=O)[C@@H](Cc1ccc(O)cc1)NC(=O)[C@@H](CCCCN)NC(=O)[C@@H](CO)NC(=O)[C@@H](Cc1ccc(O)cc1)NC(=O)[C@@H](CCC(=O)O)NC(=O)[C@@H](CO)NC(=O)[C@H](NC(=O)[C@@H](Cc1c[nH]c2ccccc12)NC(=O)[C@H](NC(=O)CNC(=O)[C@@H](CCC(N)=O)NC(=O)[C@H](N)CO)[C@H](C)O)[C@H](C)O)C(C)C)C(=O)N[C@H](CC(N)=O)C(=O)N[C@@H](C(N)=O)[C@H](C)O | 0 | 7.9 |
